Reference: US10703746B2, “Mutant IDH1 inhibitors useful for treating cancer” (THE UNITED STATES OF AMERICA, AS REPRESENTED BY THE …, priority 2014, dated 2020)

How the values were obtained:
IDH1 R132C = IDH1 R132C (Homo sapiens, UniProt O75874, R132C); assay: IDH1 R132C enzymatic assay (NADPH depletion coupled to diaphorase/resazurin); format: biochemical
How it was run: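 NADPH depletion, read via diaphorase/resazurin coupling, after adding substrate at 0.6 mM α-KG and 0.012 mM NADPH. Beforehand, 0.00032 mg/mL enzyme sat with compound 30 min at room temperature in pH 6.5 potassium phosphate buffer with MgCl2, glycerol and BSA.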

IDH1 R132H = IDH1 R132H (Homo sapiens, UniProt O75874, R132H); assay: IDH1 R132H enzymatic assay (NADPH depletion coupled to diaphorase/resazurin); format: biochemical
Chain of IDH1 R132H (O75874 whole entry R132H): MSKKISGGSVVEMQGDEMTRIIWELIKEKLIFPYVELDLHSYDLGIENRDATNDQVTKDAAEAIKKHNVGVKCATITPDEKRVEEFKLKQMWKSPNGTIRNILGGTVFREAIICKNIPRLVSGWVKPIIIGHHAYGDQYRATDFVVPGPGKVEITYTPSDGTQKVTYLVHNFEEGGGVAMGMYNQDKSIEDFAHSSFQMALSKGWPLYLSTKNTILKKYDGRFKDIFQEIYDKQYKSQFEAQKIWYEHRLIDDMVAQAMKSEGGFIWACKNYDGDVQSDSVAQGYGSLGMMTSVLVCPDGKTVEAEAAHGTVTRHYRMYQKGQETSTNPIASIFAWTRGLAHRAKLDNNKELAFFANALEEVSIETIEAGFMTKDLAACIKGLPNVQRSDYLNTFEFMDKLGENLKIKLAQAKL

[1] = enzymatic inhibition, IDH1 R132C
[2] = enzymatic inhibition, IDH1 R132H
[3] = IDH1 R132C enzymatic inhibition, IC50 class
[4] = IDH1 R132H enzymatic inhibition, IC50 class

Chain of IDH1 R132C (O75874 whole entry R132C): as the sequence (O75874 whole entry R132H) above, with H132C counted along it

Row | IC50 (IDH1 R132C; [1]) [µM] | IC50 (IDH1 R132H; [2]) [µM] | IC50 (IDH1 R132C; [3]) [µM] | IC50 (IDH1 R132H; [4]) [µM] | Structure (SMILES)
1 | < 0.3 | < 0.3 | – | – | CCOc1ncc(Cl)cc1-n1c(C=C(C)C)c(C(=O)N2CCNCC2)cc(-c2nc(-c3ccc(Cl)cc3)cs2)c1=O [Compound 575]
2 | – | – | 0.3 to 1 | 0.3 to 1 | COc1ccc(F)cc1-n1c2c(cc(-c3nc(-c4ccc(Cl)cc4)cs3)c1=O)C(=O)CC(C)(C)C2 [Compound 669]
3 | – | – | < 0.3 | 0.3 to 1 | CCc1cccc(CC)c1-n1c(C2CCCC2)c(C(=O)N2CCNCC2)cc(-c2nc(-c3ccc(Cl)cc3)cs2)c1=O [Compound 398]
4 | – | – | 1 to 5 | 1 to 5 | COc1ccccc1Cn1c2c(cc(-c3nc(-c4ccc(Cl)cc4)cs3)c1=O)C(=O)CC(C)(C)C2 [Compound 203]
5 | – | – | < 0.3 | < 0.3 | CCc1cccc(CC)c1-n1c(C=C(C)C)c(C(=O)N2C[C@H]3CC[C@@H](C2)N3)cc(-c2nc(-c3ccc(C(F)(F)F)cc3)cs2)c1=O [Compound 323]
6 | – | – | < 0.3 | 0.3 to 1 | CCc1cccc(CC)c1-n1c(CC(C)C)c(C(=O)NCC(O)c2ccccc2)cc(-c2nc(-c3ccc(Cl)cc3)cs2)c1=O (stereo not drawn) [Compound 232]
7 | – | – | 5 to 20 | 5 to 20 | CCc1cccc(CC)c1-n1c(CC(C)C)c(C(=O)NC[C@H](NC(C)=O)C(=O)O)cc(-c2nc(-c3ccc(Cl)cc3)cs2)c1=O [Compound 140]
8 | – | – | 1 to 5 | 1 to 5 | CCc1cccc(CC)c1-n1c(CC(C)C)c(C(=O)N2CCCC2CO)cc(-c2nc(-c3ccc(Cl)cc3)cs2)c1=O (stereo not drawn) [Compound 243]
9 | – | – | 0.3 to 1 | 1 to 5 | CC(C)Oc1ccccc1-n1c2c(cc(-c3nc(-c4ccc(Cl)cc4)cs3)c1=O)C(=O)CC(C)(C)C2 [Compound 130]
10 | – | – | 0.3 to 1 | 1 to 5 | CCc1cccc(CC)c1-n1c(C)c(C(=O)NCCCO)cc(-c2nc(-c3ccc(Cl)cc3)cs2)c1=O [Compound 262]
11 | – | – | 0.3 to 1 | 0.3 to 1 | CC1(C)CC(=O)c2cc(-c3nc(-c4ccc(C(F)(F)F)cc4)cs3)c(=O)n(-c3ccccc3C(F)(F)F)c2C1 [Compound 85]
12 | – | – | < 0.3 | < 0.3 | CCc1cccc(CC)c1-n1c(CC2CCCC2)c(C(=O)N2CCNCC2)cc(-c2nc(-c3ccc(Cl)cc3)cs2)c1=O [Compound 622]
13 | – | – | 1 to 5 | 5 to 20 | CCc1cccc(CC)c1-n1c2c(cc(-c3nc(-c4ccccn4)cs3)c1=O)C(=O)CC(C)(C)C2 [Compound 200]
14 | – | – | 0.3 to 1 | 1 to 5 | CC1(C)CC(=O)c2cc(-c3nc(-c4ccc(Cl)cc4)cs3)c(=O)n(-c3ccccc3OC(F)(F)F)c2C1 [Compound 9]
15 | 1 to 5 | < 0.3 | – | – | CCOc1ncc(F)cc1-n1c(C=C(C)C)c(C(=O)N2CCNCC2)cc(-c2nc(-c3ccc(C(F)F)nc3)cs2)c1=O [Compound 520]
16 | – | – | 5 to 20 | 1 to 5 | CCc1cccc(CC)c1-n1c(C)c(C(=O)N2CCC(O)C2)cc(-c2nc(-c3ccc(Cl)cc3)cs2)c1=O (stereo not drawn) [Compound 103]
17 | – | – | < 0.3 | < 0.3 | CCOc1ccc(F)cc1-n1c(C=C(C)C)c(C(=O)N2CCNCC2)cc(-c2nc(-c3ccc(C(F)(F)F)cc3)cs2)c1=O [Compound 329]
18 | – | – | 1 to 5 | > 20 | CC(C)n1c2c(cc(-c3nc(-c4ccc(Cl)cc4)cs3)c1=O)C(=O)CC(C)(C)C2 [Compound 55]
19 | – | – | 0.3 to 1 | 1 to 5 | COc1ccc(-c2csc(-c3cc4c(n(-c5ccccc5C(F)(F)F)c3=O)CC(C)(C)CC4=O)n2)cc1 [Compound 204]
20 | – | – | < 0.3 | 0.3 to 1 | CCc1cccc(CC)c1-n1c(C=C(C)C)c(C(=O)N2CCC3(CCNC3)C2)cc(-c2nc(-c3ccc(Cl)cc3)cs2)c1=O (stereo not drawn) [Compound 659]
21 | – | – | < 0.3 | < 0.3 | CCc1ncc(F)cc1-n1c(C=C(C)C)c(C(=O)N2CCNCC2)cc(-c2nc(-c3ccc(C(F)(F)F)cc3)cs2)c1=O [Compound 328]
22 | < 0.3 | < 0.3 | – | – | COc1ncc(Cl)cc1-n1c(C=C(C)C)c(C(=O)N2CCNCC2)cc(-c2nc(-c3ccc(Cl)cc3)cs2)c1=O [Compound 490]
23 | 1 to 5 | 0.3 to 1 | – | – | O=C1CCCc2c1cc(-c1nc(-c3ccc(Cl)cc3)cs1)c(=O)n2-c1ccccc1C(F)(F)F [Compound 451]
24 | – | – | < 0.3 | < 0.3 | CCOc1cccc(Cl)c1-n1c(C=C(C)C)c(C(=O)N2CCNCC2)cc(-c2nc(-c3ccc(Cl)cc3)cs2)c1=O [Compound 374]
25 | – | – | 1 to 5 | 5 to 20 | Cn1nccc1-n1c2c(cc(-c3nc(-c4ccc(Cl)cc4)cs3)c1=O)C(=O)CC(C)(C)C2 [Compound 382]
26 | – | – | 1 to 5 | 5 to 20 | COc1ccc(OC)c(-n2c(=O)c(-c3nc(-c4ccc(Cl)cc4)cs3)cc3c(OC)nccc32)c1 [Compound 97]
27 | < 0.3 | < 0.3 | – | – | CCc1cccc(CC)c1-n1c(C=C(C)C)c(C(=O)N2CCNC(C(N)=O)C2)cc(-c2nc(-c3ccc(Cl)cc3)cs2)c1=O (stereo not drawn) [Compound 426]

Row | IC50 (IDH1 R132C; [1]) [µM] | IC50 (IDH1 R132H; [2]) [µM] | IC50 (IDH1 R132C; [3]) [µM] | IC50 (IDH1 R132H; [4]) [µM] | Structure (SMILES)
28 | – | – | < 0.3 | < 0.3 | CC(C)=Cc1c(C(=O)N2CCNCC2)cc(-c2nc(-c3ccc(Cl)cc3)cs2)c(=O)n1-c1cc(C)ccc1Cl [Compound 357]
29 | < 0.3 | < 0.3 | – | – | CCOc1ncc(C)cc1-n1c(C=C(C)C)c(C(=O)N2CCNCC2)cc(-c2nc(-c3ccc(Cl)cc3)cs2)c1=O [Compound 544]
30 | – | – | 1 to 5 | 1 to 5 | CCc1cccc(CC)c1-n1c2c(cc(-c3nc(-c4ccccc4OC)cs3)c1=O)C(=O)CC(C)(C)C2 [Compound 179]
31 | – | – | < 0.3 | 1 to 5 | CCc1cccc(CC)c1-n1c(CC(C)C)c(C(=O)N2CCNC(C(=O)OC)C2)cc(-c2nc(-c3ccc(Cl)cc3)cs2)c1=O (stereo not drawn) [Compound 117]
32 | – | – | 1 to 5 | 1 to 5 | CCc1cccc(CC)c1-n1c(C=C(C)C)c(C(=O)N2CCNCC2)cc(-c2nn(-c3ccc(Cl)cc3)cc2Cl)c1=O [Compound 345]
33 | – | – | < 0.3 | 0.3 to 1 | COc1ccc(Cl)c(-n2c3c(cc(-c4nc(-c5ccc(Cl)cc5)cs4)c2=O)C(=O)CC(C)(C)C3)c1 [Compound 395]
34 | – | – | > 20 | > 20 | CCc1cccc(CC)c1-n1c2c(cc(-c3nc(-c4cccc(C(F)(F)F)c4)cs3)c1=O)C(=O)CC(C)(C)C2 [Compound 228]
35 | < 0.3 | < 0.3 | – | – | CCc1cccc(CC)c1-n1c(C=C(C)C)c(C(=O)N2CCNCC2)cc(-c2ccn(-c3ccc(OC4CC4)cc3)n2)c1=O [Compound 415]
36 | – | – | 1 to 5 | 1 to 5 | CCc1cccc(CC)c1-n1c(C)c(C(=O)NC)cc(-c2nc(-c3ccc(Cl)cc3)cs2)c1=O [Compound 108]
37 | < 0.3 | < 0.3 | – | – | CCc1cccc(CC)c1-n1c(C=C(C)C)c(C(=O)N2CCNC(=O)C2)cc(-c2ccn(-c3ccc(Cl)cc3)n2)c1=O [Compound 593]
38 | < 0.3 | < 0.3 | – | – | CC(C)=Cc1c(C(=O)N2CCNCC2)cc(-c2nc(-c3ccc(Cl)cc3)cs2)c(=O)n1-c1cc(C)ccc1OC(C)C [Compound 496]
39 | < 0.3 | < 0.3 | – | – | CCc1cccc(CC)c1-n1c(C(C)OC)c(C(=O)N2CCNCC2)cc(-c2nc(-c3ccc(Cl)cc3)cs2)c1=O (stereo not drawn) [Compound 459]
40 | – | – | < 0.3 | 0.3 to 1 | CCc1cccc(CC)c1-n1c(CC(C)C)c(C(=O)N2CCNC(C)(C(=O)O)C2)cc(-c2nc(-c3ccc(Cl)cc3)cs2)c1=O (stereo not drawn) [Compound 80]
41 | – | – | 1 to 5 | 1 to 5 | CCc1cccc(CC)c1-n1c(CO)c(C(=O)NC)cc(-c2nc(-c3ccc(Cl)cc3)cs2)c1=O [Compound 100]
42 | < 0.3 | < 0.3 | – | – | CCc1cccc(CC)c1-n1c(C=C(C)C)c(C(=O)N2CCN[C@H](C)C2)cc(-c2nc(-c3ccc(C(F)(F)F)cc3)cs2)c1=O [Compound 483]
43 | – | – | 0.3 to 1 | 0.3 to 1 | CC1(C)CC(=O)c2cc(-c3nc(-c4ccc(Cl)cc4)cs3)c(=O)n(-c3ccccc3C3CC3)c2C1 [Compound 50]
44 | – | – | 1 to 5 | 5 to 20 | CCc1cccc(CC)c1-n1c(-c2ccccc2)c(C#N)cc(-c2nc(-c3ccc(Cl)cc3)cs2)c1=O [Compound 170]
45 | – | – | 5 to 20 | > 20 | CCc1cccc(CC)c1-n1c2c(cc(-c3nc(C4=CCN(C)CC4)c(C)s3)c1=O)C(=O)CC(C)(C)C2 [Compound 208]
46 | – | – | 0.3 to 1 | 1 to 5 | CCc1cccc(CC)c1-n1c(CC(C)C)c(C(=O)N[C@H](C)CO)cc(-c2nc(-c3ccc(Cl)cc3)cs2)c1=O [Compound 64]
47 | – | – | < 0.3 | < 0.3 | CCc1cccc(F)c1-n1c(C=C(C)C)c(C(=O)N2CCNCC2)cc(-c2nc(-c3ccc(Cl)cc3)cs2)c1=O [Compound 655]
48 | – | – | > 20 | > 20 | CCc1cccc(CC)c1-n1c(C)c(C(=O)Nc2ccccc2)cc(-c2nc(-c3ccc(Cl)cc3)cs2)c1=O [Compound 180]
49 | 1 to 5 | > 20 | – | – | Cc1ccc(-n2c3c(cc(-c4nc(-c5ccc(Cl)cc5)cs4)c2=O)C(=O)CC(C)(C)C3)c(Cl)c1 [Compound 594]
50 | < 0.3 | < 0.3 | – | – | CCc1cccc(CC)c1-n1c(C=C(C)C)c(C(=O)N2CCNCC2)cc(-c2nc(-c3ccc(C(F)F)nc3)cs2)c1=O [Compound 546]
51 | – | – | 0.3 to 1 | 0.3 to 1 | CCc1cccc(CC)c1-n1c(CC(C)C)c(C(=O)N2CC(=O)N[C@@H](C(=O)O)C2)cc(-c2nc(-c3ccc(Cl)cc3)cs2)c1=O [Compound 297]
52 | > 20 | > 20 | – | – | CCc1cccc(CC)c1-n1c(CC(C)C)c(C(=O)N2CCNCC2)cc(-c2ccn(Cc3ccc(Cl)cc3)n2)c1=O [Compound 487]
53 | 0.3 to 1 | < 0.3 | – | – | CC(C)=Cc1c(C(=O)N2CCNCC2)cc(-c2nc(-c3ccc(Cl)cc3)cs2)c(=O)n1-c1ccccc1C [Compound 437]
54 | < 0.3 | < 0.3 | – | – | CCOc1ccc(-n2ccc(-c3cc(C(=O)N4CCNCC4)c(CC(C)C)n(-c4c(CC)cccc4CC)c3=O)n2)cc1 [Compound 458]
